# Reference: PMC5059758, “Structural characterization of antibiotic self-immunity tRNA synthetase in plant tumour biocontrol agent” (Nature Communications, 2016)
# Tests used:
# [1] = system: LeuRSAt Triad (P45T/N105A/M633Q); assay: Aminoacylation assay, LeuRSAt Triad mutant; format: biochemical, A. tumefaciens; details: TM84 concentrations as high as 500 nM, 4 nM enzyme, 0.63 mM ATP
# [2] = target: T1, LeuRS H. pylori (LeuRSHp) (Helicobacter pylori, UniProt P56457); assay: Aminoacylation assay, LeuRSHp; format: biochemical; details: aminoacylation of agrobacterium tRNALeu, 37 °C, 4 nM enzyme
# T1 construct: made in house
# Experimental: (§1) Aminoacylation activities of AgnB2, LeuRSAt and their mutants were measured in 50 mM HEPES buffer (pH 7.4) containing 20 mM KCl, 25 mM MgCl2, 25 mM β-ME, 4 mM ATP, 500 μM [3,4,5-^3H] L-leucine (20 μCi/mmole), 5 μg/ml inorganic pyrophosphatase, 1 μM BSA, 10 μM of active in vitro transcribed tRNA^Leu and enzymes in the range of 2–8 nM. Reactions were pre-incubated with or without substrate and/or inhibitor and then carried out at 28 °C (37 °C-LeuRSHp). Aliquots of the reaction (5–10 μl) were quenched on 3 mM filter pads (Whatman, GE Healthcare) presoaked with 5% trichloroacetic acid (TCA). The pads were washed thrice with 5% TCA and 90% ethanol at 4 °C and then dried. The amount of Leu-tRNA^Leu was then quantified using scintillation counting. Each reaction was performed in triplicate and analyzed using Kaleidagraph (for Km and kcat determinations) or GraphPad Prism software (for IC50 determination).
# [3] = target: T2, AgnB2 Triple mutant + LS domain (Agrobacterium radiobacter, UniProt B9JQP8, A102N/DEL566-572/Q573M/T42P, form not given); assay: Isothermal titration calorimetry, AgnB2 Triple mutant + LS domain; format: binding, Agrobacterium radiobacter K84; details: ITC, enzyme alone
# T2 sequence (B9JQP8 1-814 T42P/A102N/Q573M/DEL566-572): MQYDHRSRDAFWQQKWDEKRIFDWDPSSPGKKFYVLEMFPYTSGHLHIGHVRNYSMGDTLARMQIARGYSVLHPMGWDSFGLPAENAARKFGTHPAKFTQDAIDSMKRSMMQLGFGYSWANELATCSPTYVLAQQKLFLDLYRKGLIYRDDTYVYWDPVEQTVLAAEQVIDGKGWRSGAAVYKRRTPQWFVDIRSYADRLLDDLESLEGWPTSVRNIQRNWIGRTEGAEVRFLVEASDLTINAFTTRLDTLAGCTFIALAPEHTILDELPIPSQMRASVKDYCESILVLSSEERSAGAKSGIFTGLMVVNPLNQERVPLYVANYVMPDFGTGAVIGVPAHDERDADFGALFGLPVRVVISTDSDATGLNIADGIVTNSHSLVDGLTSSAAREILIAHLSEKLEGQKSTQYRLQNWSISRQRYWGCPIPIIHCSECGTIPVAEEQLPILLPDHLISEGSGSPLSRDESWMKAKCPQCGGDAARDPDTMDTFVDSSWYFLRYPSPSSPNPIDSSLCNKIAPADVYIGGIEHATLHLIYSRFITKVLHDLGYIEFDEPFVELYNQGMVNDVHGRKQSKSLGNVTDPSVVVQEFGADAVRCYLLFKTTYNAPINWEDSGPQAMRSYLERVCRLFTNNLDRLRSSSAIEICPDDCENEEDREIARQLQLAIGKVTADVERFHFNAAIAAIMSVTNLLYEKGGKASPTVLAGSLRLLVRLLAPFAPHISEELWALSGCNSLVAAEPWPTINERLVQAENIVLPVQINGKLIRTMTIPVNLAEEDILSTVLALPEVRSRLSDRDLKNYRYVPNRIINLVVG
# T2 sequence (Q8UBV2 585-631 partner): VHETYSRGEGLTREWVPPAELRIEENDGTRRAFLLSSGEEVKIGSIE
# Text: The LS domain of LeuRSAt (141 bp) was inserted into AgnB2 (replacing the region between amino acid no. 566 and 572 with the LS domain)[37] To obtain this, the forward PCR primer was designed to contain the region of AgnB2 (∼25 bp) preceding the LS domain insertion followed by the first 25 bases of the LS domain (5′–3′). Similarly, the reverse primer was designed so as to include the last 25 bp of the LS domain (3′–5′) and the gene sequence of AgnB2 after the LS domain insertion. An extension reaction was carried out to obtain mega primers, (forward and reverse) encoding the entire LS domain (of LeuRSAt) flanked by the sequence of AgnB2 on both sides using the protocol by Wang and Malcolm[42]. DpnI digestion was then carried out to remove the wt template. The resultant mega primer was gel purified using the Qiaex II gel extraction kit (Qiagen) to be used in the second step. […]
# Typically, about 4–8 μM active protein solution and a 10-fold higher ligand concentration were prepared in buffer containing 50 mM HEPES (pH 7.4), 20 mM KCl 10 mM MgCl2 and 1 mM β-ME. […] The data was then analyzed using Origin software (version 7) and fitted to a one-site or a two-site binding model to obtain the binding affinity (Kd), stoichiometry (N) and enthalpy (ΔH) for each complex.
# wt AgnB2 (LeuRS) [4] = target: T3, wt AgnB2 (LeuRS) (Agrobacterium radiobacter, UniProt B9JQP8); assay: Isothermal titration calorimetry, wt AgnB2; format: binding, Agrobacterium radiobacter K84; details: ITC; for Kd: 28 °C
# Experimental: (§2) Typically, about 4–8 μM active protein solution and a 10-fold higher ligand concentration were prepared in buffer containing 50 mM HEPES (pH 7.4), 20 mM KCl 10 mM MgCl2 and 1 mM β-ME. The titrations were carried out in triplicate at 28 °C. The data was then analyzed using Origin software (version 7) and fitted to a one-site or a two-site binding model to obtain the binding affinity (Kd), stoichiometry (N) and enthalpy (ΔH) for each complex.
# [5] = system: LeuRSAt (leucyl-tRNA synthetase); assay: Aminoacylation assay, wt LeuRSAt; format: biochemical, A. tumefaciens; details: 20 nM TM84, 4 nM enzyme, 0.63 mM ATP, 28 °C, pH 7.4
# Experimental: as §1, with “Aminoacylation activities of AgnB2, LeuRSAt and their mutants were measured in 50 mM HEPES buffer (pH 7.4) containing 20 mM KCl, 25 mM MgCl2, 25 mM β-ME, 4 mM ATP, 500 μM [3,4,5-^3H]” left out
# [6] = system: LeuRSAt Triad (P45T/N105A/M633Q); assay: Isothermal titration calorimetry, LeuRSAt Triad mutant; format: binding, A. tumefaciens; details: ITC
# Experimental: as §2
# AgnB2 Triple Q413R = assay: Isothermal titration calorimetry, AgnB2 Triple Q413R mutant; format: binding, Agrobacterium radiobacter K84; details: ITC
# Experimental: as §2
# wt AgnB2 (LeuRS) [7] = target: T3, wt AgnB2 (LeuRS); assay: Aminoacylation assay, wt AgnB2; details: for Ki: 2 nM enzyme
# agrobacterial IleRS = details: cited from earlier work
# [8] = target: T4, AgnB2 Triple + Q413R mutant (Agrobacterium radiobacter, UniProt B9JQP8, A102N/Q413R/Q573M/T42P); assay: Aminoacylation assay, AgnB2 Triple + Q413R mutant; format: biochemical, Agrobacterium radiobacter K84; details: fixed ATP concentration (0.675 mM), saturating leucine
# T4 sequence (B9JQP8 1-814 T42P/A102N/Q573M/Q413R): T2 sequence (B9JQP8 1-814 T42P/A102N/Q573M/DEL566-572)
# Experimental: as §1
# [9] = target: LeuRSAt (leucyl-tRNA synthetase); details: wt LeuRSAt, aminoacylation; read-out: Ki app; cited from earlier work
# [10] = system: AgnB2 Triple (T42P/A102N/Q573M); assay: Isothermal titration calorimetry, AgnB2 Triple mutant; format: binding, Agrobacterium radiobacter K84; details: ITC
# Experimental: as §2
# [11] = system: AgnB2 Triple (T42P/A102N/Q573M); assay: Aminoacylation assay, AgnB2 Triple mutant; format: biochemical, Agrobacterium radiobacter K84; details: 4 nM enzyme, 0.63 mM ATP, 28 °C, pH 7.4
# CC(C)C[C@H](N)C(=O)O [12] = assay: ATP/PPi exchange assay (amino acid activation), LeuRSAt; format: biochemical, A. tumefaciens; details: other: ATP-PPi exchange, substrate, 28 °C, pH 7.4
# Experimental: The formation of Leu-AMP by ATP/PPi exchange assays was performed as described earlier. Briefly, the reaction buffer contained 50 mM HEPES buffer (pH 7.4), 20 mM KCl, 10 mM MgCl2, 500 μM L-leucine, 4 mM ATP, 1 mM tetrasodium pyrophosphate (NaPPi), 10 μCi/mmol [^32P] NaPPi and 1 μM bovine serum albumin (BSA). The reaction was initiated by addition of 1–4 nM of active enzyme and incubated at 28 °C. Aliquots (5 μl each) were collected over 30 min and quenched in a 10% charcoal slurry containing 0.5% HCl and 50 μl of 200 mM sodium pyrophosphate in 1 M HCl. Liquid scintillation counting was then used to measure the amount of [^32P]-PPi incorporation into ATP that was adsorbed onto the charcoal.
# [13] = target: T5, AgnB2 (TM84-resistant leucyl-tRNA synthetase) (Agrobacterium radiobacter K84 (plasmid pAgK84)) (UniProt B9JQP8); assay: ITC
# T5 sequence: T2 sequence (B9JQP8 1-814 T42P/A102N/Q573M/DEL566-572)
# CC(C)C[C@H](N)C(=O)O [14] = assay: purified protein, by the assay type; details: substrate, 28 °C, pH 7.4
# T1 sequence (P56457 whole entry): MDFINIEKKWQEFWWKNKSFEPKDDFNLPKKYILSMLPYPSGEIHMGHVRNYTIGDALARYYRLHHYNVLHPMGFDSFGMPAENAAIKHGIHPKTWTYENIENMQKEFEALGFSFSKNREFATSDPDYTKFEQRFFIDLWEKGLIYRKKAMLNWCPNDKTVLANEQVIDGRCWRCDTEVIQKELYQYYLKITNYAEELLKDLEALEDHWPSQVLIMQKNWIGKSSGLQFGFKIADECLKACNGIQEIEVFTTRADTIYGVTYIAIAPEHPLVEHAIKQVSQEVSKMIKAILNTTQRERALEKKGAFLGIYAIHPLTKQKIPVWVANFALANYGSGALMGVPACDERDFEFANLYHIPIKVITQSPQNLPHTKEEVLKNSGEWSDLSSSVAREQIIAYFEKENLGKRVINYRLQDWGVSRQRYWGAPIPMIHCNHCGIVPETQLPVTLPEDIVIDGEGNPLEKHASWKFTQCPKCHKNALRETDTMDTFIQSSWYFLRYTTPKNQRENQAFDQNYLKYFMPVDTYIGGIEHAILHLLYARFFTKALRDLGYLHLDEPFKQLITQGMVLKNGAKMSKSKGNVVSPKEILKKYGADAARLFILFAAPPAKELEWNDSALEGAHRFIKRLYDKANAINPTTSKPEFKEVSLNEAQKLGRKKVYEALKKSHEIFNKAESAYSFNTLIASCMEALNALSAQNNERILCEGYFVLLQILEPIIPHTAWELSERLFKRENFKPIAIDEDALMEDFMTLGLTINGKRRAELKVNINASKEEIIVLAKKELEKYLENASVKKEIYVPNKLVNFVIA
molecule,measurement,setting,value
CC(C)[C@@H](O)[C@H](O)C(=O)NP(=O)(O)OC[C@@H]1C[C@H](O)[C@H](n2cnc3c(N)ncnc32)O1 [TM84],effect on aminoacylation activity,[1],almost no effect
same,IC50,[2],34 ± 1.14 nM
same,increase in TM84 binding alone compared with wt AgnB2,[3],fourfold
same,reduction in AgnB2-binding affinity compared with LeuRSAt,"wt AgnB2 (LeuRS) [4]; binary binding, AgnB2 vs LeuRSAt (ref 23)",6.9 fold
same,"decrease in affinity, AgnB2·tRNA·TM84 compared with LeuRSAt·tRNA·TM84 complex",wt AgnB2 (LeuRS) [4]; ternary complex,~330 fold
same,Kd,"wt AgnB2 (LeuRS) [4]; ligand binding to AgnB2 alone, pH 7.4",1050 nM
same,Kd,"wt AgnB2 (LeuRS) [4]; TM84 binding to AgnB2 with pre-bound tRNA, AgnB2 with pre-bound tRNA",332 nM
same,activity remaining,[5],4%
same,"decrease in TM84 binding affinity compared with LeuRSAt, enzyme alone",[6]; LeuRSAt Triad alone,10 fold
same,"decrease in TM84 binding affinity compared with LeuRSAt, enzyme pre-incubated with tRNALeu",[6]; LeuRSAt Triad pre-incubated with tRNALeu,28 fold
same,binding of TM84 to enzyme·tRNALeu complex tighter than wt AgnB2,AgnB2 Triple Q413R; AgnB2 Triple Q413R·tRNALeu complex,sixfold
same,binding of TM84 to enzyme alone tighter than wt enzyme,AgnB2 Triple Q413R; enzyme alone,1.3 fold
same,IC50,wt AgnB2 (LeuRS) [7],61300 nM
same,change in aminoacylation activity,"wt AgnB2 (LeuRS) [7]; 4 nM enzyme, 0.63 mM ATP, 28 °C, pH 7.4",No change
same,mode of inhibition with regards to ATP and leucine,"wt AgnB2 (LeuRS) [7]; aminoacylation, Lineweaver-Burk",weak competitive inhibitor
same,Ki,"wt AgnB2 (LeuRS) [7]; apparent TM84 Ki, varying leucine, aminoacylation, fixed ATP 1 mM, 28 °C, pH 7.4",1380 ± 280 nM
same,Ki,"wt AgnB2 (LeuRS) [7]; apparent TM84 inhibition constant (Ki), varying ATP, aminoacylation, fixed leucine, AgnB2·tRNALeu pre-incubated, 28 °C, pH 7.4",4720 ± 750 nM
same,inhibition of agrobacterial IleRS,agrobacterial IleRS,does not inhibit
same,IC50,[8],2900 nM
same,Ki,[9],0.3 ± 0.1 nM
same,"effect of mutations on TM84 binding, enzyme alone",[10]; AgnB2 Triple alone vs wt AgnB2,no significant effect
same,increase in binding of TM84 to the AgnB2·tRNALeu complex,[10]; AgnB2 Triple with tRNALeu vs wt AgnB2,3.5 fold
same,activity remaining,[11],13%
LeuRSAt (Agrobacterium fabrum str. C58),Km,CC(C)C[C@H](N)C(=O)O [12],9.7 ± 0.7 µM
same,kcat,CC(C)C[C@H](N)C(=O)O [12],85 ± 1.6 s⁻¹
tRNALeu (agrobacterial),Kd,[13],310 nM
wt AgnB2 (LeuRS) (Rhizobium rhizogenes K84),Km,CC(C)C[C@H](N)C(=O)O [14]; other: ATP-PPi exchange,12 ± 2 µM
same,kcat,CC(C)C[C@H](N)C(=O)O [14]; other: ATP-PPi exchange,73 ± 3.6 s⁻¹
same,Km,CC(C)C[C@H](N)C(=O)O [14]; other: aminoacylation,28.7 ± 7.3 µM
same,kcat,CC(C)C[C@H](N)C(=O)O [14]; other: aminoacylation,0.35 ± 0.03 s⁻¹
